Key:
[1] = Cytotoxicity against golden hamster BSR-T7 cells assessed as reduction in cell viability measured after 18 to 24 hrs by MTT assay; assay type: cell-based, Mesocricetus auratus, BSR-T7/5
[2] = test system: Western equine encephalitis virus; experiment: Antiviral activity against Western equine encephalitis virus infected in BSR-T7 cells assessed as inhibition of viral genome replicon replication measured after 18 to 24 hrs by luciferase assay; assay type: functional, organism-based; conditions: BSR-T7/5
[3] = Antiviral activity against FMV infected in human BE2C cells assessed as reduction in virus-induced cytopathicity at 25 uM relative to control
[4] = Antiviral activity against FMV infected in human BE2C cells assessed as reduction in virus-induced cytopathicity at 5 uM relative to control
[5] = Antiviral activity against FMV infected in human BE2C cells assessed as reduction in virus-induced cytopathicity by measuring cell viability at 25 uM (reference value: 19.6 +/-4%)
[6] = Antiviral activity against FMV infected in human BE2C cells assessed as reduction in virus-induced cytopathicity by measuring cell viability at 5 uM (reference value: 19.6 +/-4%)

Compound | IC50 [2] [µM] | CC50 ([1]; bsr-t7/5, time 18-24 hrs) [µM] | also measured
O=C(NCc1ccccc1)C1CCN(C(=O)c2cc3ccccc3n2Cc2ccc(Cl)cc2)CC1 | 30.6 |  | CC50 ([1]; BSR-T7 cells, time 18-24 hrs): > 100 µM
O=C(NCCc1ccncc1)C1CCN(C(=O)c2cc3ccccc3n2Cc2ccc(Cl)cc2)CC1 |  |  | fold change (FC) [3]: 2
O=C(c1cc2ccccc2n1Cc1ccc(Cl)cc1)N1CCC(/C=C/CCc2ccncc2)CC1 | > 50 |  | 
Cc1cccc2cc(C(=O)N3CCC(C(=O)NCc4ccccc4)CC3)n(Cc3ccc(Cl)cc3)c12 | 61 | > 100 | 
O=C(CC1CCN(C(=O)c2cc3ccccc3n2Cc2ccc(Cl)cc2)CC1)NCc1ccncc1 | 24.7 | 77.3 | 
O=C(NCCCc1ccccc1)C1CCN(C(=O)c2cc3ccccc3n2Cc2ccc(Cl)cc2)CC1 | > 100 | > 50 | 
O=C(c1cc2ccccc2n1Cc1ccc(Cl)cc1)N1CCC(/C=C\CCc2ccncc2)CC1 | > 50 | > 50 | 
O=C(c1cc2ccccc2n1Cc1ccc(Cl)cc1)N1CCC(C(=O)N2Cc3ccccc3C2)CC1 | > 100 | > 100 | 
O=C(NCCc1ccncc1)C1=CCN(C(=O)c2cc3ccccc3n2Cc2ccc(Cl)cc2)CC1 | 3.9 | 74.2 | 
O=C(NCC1CCc2ccccc21)C1CCN(C(=O)c2cc3ccccc3n2Cc2ccc(Cl)cc2)CC1 (stereo not drawn) | 7.1 | > 100 | 
Cc1c(C(=O)N2CCC(C(=O)NCc3ccccc3)CC2)n(Cc2ccc(Cl)cc2)c2ccccc12 | > 100 | > 100 | 
O=C(c1cc2ccccc2n1Cc1ccc(Cl)cc1)N1CCC(C(=O)N2CCc3ccccc32)CC1 | > 100 | > 100 | 
O=C(NCCc1ccncc1)[C@H]1[C@@H]2CCN(C(=O)c3cc4ccccc4n3Cc3ccc(Cl)cc3)C[C@@H]21 | 24.6 | > 100 | 
O=C(NCCc1ccncc1)N1CCN(C(=O)c2cc3ccccc3n2Cc2ccc(Cl)cc2)CC1 | 24.4 | 78 | 
CN(CCc1ccncc1)C(=O)[C@@H]1C[C@H]2CC[C@@H](C1)N2C(=O)c1cc2ccccc2n1Cc1ccc(Cl)cc1 | 0.96 | 50.9 | 
O=C(NCCc1ccncc1)C1CC2(C1)CN(C(=O)c1cc3ccccc3n1Cc1ccc(Cl)cc1)C2 | 10.9 | 56.5 | 
O=C(NCCc1ccncc1)C1CCCN(C(=O)c2cc3ccccc3n2Cc2ccc(Cl)cc2)CC1 (stereo not drawn) | 0.49 | 41.1 | fold change (FC) [4]: 2; Activity [5]: 22.9%; Activity [6]: 36.1%
O=C(c1cc2ccccc2n1Cc1ccc(Cl)cc1)N1CCC(C(=O)N2CCC(c3ccccc3)C2)CC1 (stereo not drawn) | > 100 | > 100 | 
O=C(CCc1ccncc1)NC1CCN(C(=O)c2cc3ccccc3n2Cc2ccc(Cl)cc2)CC1 | 17.6 | 66.7 | 
O=C(NC1Cc2ccccc2C1)C1CCN(C(=O)c2cc3ccccc3n2Cc2ccc(Cl)cc2)CC1 | > 100 | > 100 | 
O=C(NCC1Cc2ccccc2C1)C1CCN(C(=O)c2cc3ccccc3n2Cc2ccc(Cl)cc2)CC1 | 0.53 | > 100 | 
O=C(c1cc2ccccc2n1Cc1ccc(Cl)cc1)N1CC[C@H]2C(=O)N(CCc3ccncc3)C[C@H]2C1 | 24.4 | 61 | 
O=C(c1cc2ccccc2n1Cc1ccc(Cl)cc1)N1CCC(C(=O)N2CCCC2c2ccccc2)CC1 (stereo not drawn) | > 100 | > 100 | 
O=C(NC1CCc2ccccc21)C1CCN(C(=O)c2cc3ccccc3n2Cc2ccc(Cl)cc2)CC1 (stereo not drawn) | > 100 | > 100 | 
CC1(C(=O)NCCc2ccncc2)CCN(C(=O)c2cc3ccccc3n2Cc2ccc(Cl)cc2)CC1 | > 50 | > 50 | 
CC(NC(=O)C1CCN(C(=O)c2cc3ccccc3n2Cc2ccc(Cl)cc2)CC1)C1Cc2ccccc2C1 (racemic) | 1.7 | > 100 | 
